From patent US20210255193A1, “LYSINE REACTIVE PROBES AND USES THEREOF” (The Scripps Research Institute, priority 2017, published 2021)

Legend:
Assay in all cases: competitive isoTOP-ABPP
[1] = target: T1, NUDT2 Bis(5-nucleosyl)-tetraphosphatase (Homo sapiens, UniProt P50583); assay type: binding; conditions: for isoTOP-ABPP ratio (R) at liganded lysine P50583_K89: 50 uM, in vitro, sol, 231; for isoTOP-ABPP ratio, lysine P50583_K89: possible other lysine P50583_K87
T1 construct: isoTOP-ABPP experiments performed in cell lysates (in vitro); endogenous in cells
Procedure: (§1) In vitro covalent fragment treatment for isoTOP-ABPP. All compounds were made up as solutions in DMSO (100×) and were used at a final concentration of 50 μM for activated esters and 100 μM for guanidinylating agents. For each profiling sample, 0.5 ml of lysate was treated with 5 μl of the 100× compound stock solution or 5 μl of DMSO. Samples were treated with activated esters for
(§2) STP-alkyne labeling and click chemistry. For concentration-dependent reactivity measurements by isoTOP-ABPP, 0.5 ml proteome aliquots were treated at ambient temperature with 1 mM STP-alkyne 1 (5 μl of 100 mM stock in DMSO) and 0.1 mM STP alkyne 1 (5 μl of 10 mM stock in DMSO), respectively. For competitive isoTOP-ABPP, after in vitro fragment treatment (detailed above), the samples were labeled for 1 h at ambient temperature with 0.1 mM STP-alkyne 1 (5 μl of 10 mM stock in DMSO). Samples were conjugated by copper-mediated azide-alkyne cycloaddition (CuAAC) to either the light (1 mM STP-alkyne or fragment treated) or heavy (0.1 mM STP-alkyne or DMSO treated) TEV tags (10 μl of 5 mM stocks in DMSO, final concentration=100 μM) using tris(2-carboxyethyl)phosphine hydrochloride
(§3) R value calculation and processing. The ratios of light and heavy MS1 peaks for each unique peptide were quantified with a CIMAGE software using default parameters (3 MS1 acquisitions per peak and signal to noise threshold set to 2.5). For reactivity measurements by isoTOP-ABPP, the R value was calculated from the ratio of MS1 peak areas, comparing the 1 mM STP alkyne sample (light TEV tag) with the 0.1 mM STP alkyne sample (heavy TEV tag). For competitive isoTOP-ABPP, the R value was calculated from the ratio of MS1 peak areas, comparing the DMSO treated sample (heavy TEV tag) with the compound treated sample (light TEV tag). […] Ratios for unique peptide entries are calculated for each experiment; overlapping peptides with the same modified lysine (for example, different charge states, MudPIT chromatographic steps or tryptic termini) are grouped together and the median ratio is reported as the final ratio (R). The peptide ratios reported by CIMAGE were further filtered to ensure the removal or correction of low-quality ratios in each individual data set. The quality filters applied were the following: removal of half tryptic peptides; for ratios with high standard deviations from the median (90% of the median or above) the lowest ratio was taken instead of the median; removal of peptides with R=20 and only a single MS2 event triggered during the elution of the parent ion; manual annotation of all the peptides with ratios of 20, removing any peptides with low quality elution profiles that remained after the previous curation steps (only done for competitive isoTOP-ABPP).
(§4) Cross-data processing for fragment screening. For compound treated samples, biological replicates of the same condition were averaged, if the standard deviation was below 60% of the mean; otherwise, for lysines with at least one R value <4 for a particular compound, the lowest value of the ratio set was taken. For lysines, where all R values for a particular compound were ≥4, the average was reported. For peptides containing several possible modified lysines, the lysine with the highest number of quantification events was used for analysis and the remaining, redundant peptides were reported as alternative modification sites. Peptides included in the aggregate dataset (those used for further bioinformatics and statistical analyses) were required to have been quantified in 2 experiments for competitive isoTOP-ABPP. Lysines were categorized as liganded, if they had at least one ratio R≥4 (hit fragments). For liganded lysines with R=20 for all liganding events, lysines were required to have been quantified with R=20 in two separate experiments and were further required to have been quantified with R<20 in one additional experiment.

[2] = target: T2, ABCE1 ATP-binding cassette sub-family E member 1 (Homo sapiens, UniProt P61221); conditions: for isoTOP-ABPP ratio (R) at liganded lysine P61221_K478 / isoTOP-ABPP ratio (R) at liganded lysine P61221_K191: 50 uM, in vitro, sol, 231
T2 construct: isoTOP-ABPP experiments performed in cell lysates (in vitro); endogenous in cells; host or cells: soluble proteome of human cancer cell lines (MDA-MB-231, Ramos, Jurkat)
Procedure: as §1, §2, §3, §4

[3] = target: T3, ISOC2 Isochorismatase domain-containing protein 2, mitochondrial (Homo sapiens, UniProt Q96AB3); assay type: binding; conditions: for isoTOP-ABPP ratio (R) at liganded lysine Q96AB3_K178: 50 uM, in vitro, sol, 231
T3 construct: isoTOP-ABPP experiments performed in cell lysates (in vitro); endogenous in cells; host or cells: soluble proteome of human cancer cell lines (MDA-MB-231; Ramos and Jurkat also prepared)
T3 sequence (Q96AB3 1-205): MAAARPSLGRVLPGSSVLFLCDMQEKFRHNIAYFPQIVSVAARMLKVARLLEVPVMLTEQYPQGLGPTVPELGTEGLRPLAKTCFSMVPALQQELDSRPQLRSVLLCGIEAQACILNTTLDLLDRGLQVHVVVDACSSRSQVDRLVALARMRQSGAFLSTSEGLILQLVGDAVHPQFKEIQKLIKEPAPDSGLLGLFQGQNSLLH
Procedure: as §1, §2, §3, §4

[4] = target: T4, MAP1LC3B Microtubule-associated proteins 1A/1B light chain (Homo sapiens, UniProt Q9GZQ8); assay type: binding; conditions: for isoTOP-ABPP ratio (R) at liganded lysine Q9GZQ8_K51: 50 uM, in vitro, sol, 231
T4 construct: isoTOP-ABPP experiments performed in cell lysates (in vitro); endogenous in cells; host or cells: soluble proteome of human cancer cell lines (MDA-MB-231; Ramos and Jurkat also prepared)
Procedure: as §1, §2, §3, §4

[5] = target: T5, ABHD10 Abhydrolase domain-containing protein 10, mitochondrial (Homo sapiens, UniProt Q9NUJ1); assay type: binding; conditions: for isoTOP-ABPP ratio (R) at liganded lysine Q9NUJ1_K185: 50 uM, in vitro, sol, 231
T5 construct: endogenous in cells; host or cells: MDA-MB-231 lysate
T5 sequence (Q9NUJ1 53-306): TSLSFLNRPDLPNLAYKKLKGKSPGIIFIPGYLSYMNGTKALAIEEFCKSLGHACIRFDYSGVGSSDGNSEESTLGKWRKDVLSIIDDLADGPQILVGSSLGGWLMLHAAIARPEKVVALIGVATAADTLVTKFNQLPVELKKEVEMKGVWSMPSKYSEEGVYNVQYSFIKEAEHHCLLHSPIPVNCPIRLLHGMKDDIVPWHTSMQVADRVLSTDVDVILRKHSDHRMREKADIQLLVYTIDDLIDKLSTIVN
Procedure: as §1, §2, §3, §4

T1 sequence (P50583 whole entry): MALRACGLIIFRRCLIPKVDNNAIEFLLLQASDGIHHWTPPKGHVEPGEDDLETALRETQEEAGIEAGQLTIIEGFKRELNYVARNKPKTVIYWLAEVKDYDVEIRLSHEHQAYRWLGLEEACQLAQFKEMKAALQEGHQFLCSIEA

Compound	isoTOP-ABPP ratio (R) at liganded lysine P50583_K89 [1]	isoTOP-ABPP ratio (R) at liganded lysine P61221_K478 [2]	isoTOP-ABPP ratio (R) at liganded lysine Q96AB3_K178 [3]	isoTOP-ABPP ratio (R) at liganded lysine Q9GZQ8_K51 [4]	isoTOP-ABPP ratio (R) at liganded lysine Q9NUJ1_K185 [5]	isoTOP-ABPP ratio (R) at liganded lysine P61221_K191 [2]	isoTOP-ABPP ratio, lysine P50583_K89 ([1]; 50 uM_231_sol_in vitro)	isoTOP-ABPP ratio, lysine P61221_K191 ([2]; 50 uM_231_sol_in vitro)	isoTOP-ABPP ratio, lysine P61221_K478 ([2]; 50 uM_231_sol_in vitro)	isoTOP-ABPP ratio, lysine Q96AB3_K178 ([3]; 50 uM_231_sol_in vitro)	isoTOP-ABPP ratio, lysine Q9GZQ8_K51 ([4]; 50 uM_231_sol_in vitro)	isoTOP-ABPP ratio, lysine Q9NUJ1_K185 ([5]; 50 uM_231_sol_in vitro)	further results
O=C(CC12CC3CC(CC(C3)C1)C2)Oc1ccc([N+](=O)[O-])cc1[N+](=O)[O-] [fragment 38, 2,4-Dinitrophenyl 2-(adamantan-1-yl)acetate]	0.9	0.9	0.9	0.8	3.3	–	–	–	–	–	–	–	–
O=C(Oc1ccc([N+](=O)[O-])cc1[N+](=O)[O-])c1ccc(Oc2ccccc2)cc1 [fragment 39, 2,4-Dinitrophenyl 4-phenoxybenzoate]	2.4	1.0	0.9	0.9	1.0	0.8	–	–	–	–	–	–	–
O=C(Oc1ccc([N+](=O)[O-])cc1[N+](=O)[O-])c1ccccc1Nc1cccc(C(F)(F)F)c1 [fragment 40, 2,4-Dinitrophenyl 2-((3-(trifluoromethyl)phenyl)amino)benzoate]	0.9	1.0	0.9	1.0	0.9	0.9	–	–	–	–	–	–	–
CC(C)(C)OC(=O)NCCCC(=O)Oc1ccc([N+](=O)[O-])cc1[N+](=O)[O-] [fragment 41, 2,4-Dinitrophenyl 4-((tert-butoxycarbonyl)amino)butanoate]	1.0	1.3	1.9	0.9	3.3	1.2	–	–	–	–	–	–	–
O=C(Oc1ccc([N+](=O)[O-])cc1[N+](=O)[O-])C(c1ccccc1)(c1ccccc1)c1ccccc1 [fragment 42, 2,4-Dinitrophenyl 2,2,2-triphenylacetate]	1.0	1.1	1.0	0.9	1.0	1.0	–	–	–	–	–	–	–
N#Cc1ccc(C(=O)Oc2ccc([N+](=O)[O-])cc2[N+](=O)[O-])cc1 [fragment 44, 2,4-Dinitrophenyl 4-cyanobenzoate]	–	–	–	–	–	–	0.9	1.1	0.9	1.3	0.9	1.2	–
O=C(CCc1ccc2c(c1)OCO2)Oc1ccc([N+](=O)[O-])cc1[N+](=O)[O-] [fragment 45, 2,4-Dinitrophenyl 3-(benzo[d][1,3]dioxol-5-yl)propanoate]	–	–	–	–	–	–	1.7	1.1	1.5	1.8	1.0	1.2	–
O=C(Oc1c(F)c(F)c(C(F)(F)F)c(F)c1F)c1cc(C(F)(F)F)cc(C(F)(F)F)c1 [fragment 47, 2,3,5,6-Tetrafluoro-4-(trifluoromethyl)phenyl 3,5-bis(trifluoromethyl)benzoate]	–	–	–	–	–	–	1.0	1.7	1.4	1.2	0.9	1.8	–
O=C(Oc1c(F)c(F)cc(F)c1F)c1cc(C(F)(F)F)cc(C(F)(F)F)c1 [fragment 48, 2,3,5,6-Tetrafluorophenyl 3,5-bis(trifluoromethyl)benzoate]	–	–	–	–	–	–	1.0	1.0	1.1	0.9	0.8	2.7	–
COC(=O)NC(=NC(=O)OCC1c2ccccc2-c2ccccc21)n1cccn1 [fragment 49, N-Methoxycarbonyl-N′-9-fluorenylmethoxycarbonyl-pyrazole-1-carboxamidine]	–	–	–	–	–	–	–	–	–	–	–	–	isoTOP-ABPP ratio, lysine P50583_K89 ([1]; 100 uM_231_sol_in vitro): 20.0; reaction with K89 by isoTOP-ABPP ([1]; NUDT2 K89): preferentially reacting; isoTOP-ABPP ratio, lysine P61221_K191 ([2]; 100 uM_231_sol_in vitro): 20.0; isoTOP-ABPP ratio, lysine P61221_K478 ([2]; 100 uM_231_sol_in vitro): 1.0; isoTOP-ABPP ratio, lysine Q96AB3_K178 ([3]; 100 uM_231_sol_in vitro): 1.1; isoTOP-ABPP ratio, lysine Q9GZQ8_K51 ([4]; 100 uM_231_sol_in vitro): 1.6; isoTOP-ABPP ratio, lysine Q9NUJ1_K185 ([5]; 100 uM_231_sol_in vitro): 1.5
